According to EP1068226B1, “LIPOPEPTIDES INDUCING T LYMPHOCYTIC CYTOTOXICITY BEARING AT LEAST ONE AUXILIARY T EPITOPE, AND USES FOR VACCINATION” (INSTITUT NATIONAL DE LA SANTE ET DE LA RECHERCHE MEDICALE …, priority 1998, dated 1999):
Residues, ends and D or L forms follow the SMILES beside them. *: point of attachment. Palmitoyl = CCCCCCCCCCCCCCCC(=O)*

How the values were obtained:
[1] = Solubility and filterability of the lipopeptides; assay type: physicochemical
Method: Le lipopeptide n° 3 est soluble dans l'acide acétique à 80%. Il peut être stérilisable par filtration sur un microfiltre de 0,22 µm. Il peut être en outre dissous dans une solution DMSO/eau 10% V/V. La mesure de la masse par spectrométrie PDMS-TOF confirme la présence du produit attendu. Le produit s'avère purifiable après injection d'une solution concentrée dans le DMSO, sur colonne Vydac C4, à 60°C, en utilisant un gradient d'acétonitrile, en présence du contre-ion TFA. Le produit est caractérisable par HPLC selon plusieurs méthodes résolutives conventionnelles, sur colonnes Vydac C4, Zorbax C3, Zorbax CN, Zorbax C1, à 60°C, à l'aide de gradients d'acétonitrile en présence d'un contre-ion TFA, ou en utilisant un modificateur organique, tel que l'isopropanol ou le butanol en isocratique.
Le trifluoroacétate du lipopeptide n°3 est soluble dans le DMSO (20-25 mg/mL), et reste soluble après dilution par de l'eau (DMSO 10%). L'échange du contre-ion trifluoroacétate pour un contre-ion acétate peut être réalisé par RP-HPLC sur une colonne C4: le produit dissous dans le DMSO à 80% est injecté sur la colonne équilibrée par le solvant A (acide acétique à 5% dans l'eau). Après élimination des produits non retenus (contre-ions TFA, sels), le produit est élué par l'aide d'un gradient du solvant A vers le solvant B (acétonitrile 80% - acide acétique à 5% - eau 15%). […]

[2] = test system: CTL spécifiques dans les PBMC de patients séropositifs pour HIV; experiment: ELISPOT IFN-γ test on human PBMC of HIV-seropositive donors (antigenicity); assay type: cell-based, homme; conditions: PBMC of patient HLA-B7 Z118; figure 6c
Method: Des donneurs séropositifs pour HIV ont été sélectionnés pour leur expression en molecules HLA de classe I selon des données bien connues de l'homme du métier en matière de restriction vis-à-vis des peptides et lipopeptides.
Des microplaques de nitrocellulose (Millipore, Bedford, MA) ont été incubées pendant la nuit à 4°C avec 1 µg/ml d'un anticorps de capture anti-Interféron-γ humain dilué dans un tampon carbonate/bicarbonate à pH 9,6 (100 µl/puits). Après cinq lavages, les plaques ont été saturées pendant 2 heures à 37°C avec 200 µl puis lavées. Pour les cultures de cellules humaines, le milieu complet était composé de RPMI 1640, 10% de sérum albumine bovine, 2mM glutamine, d'antibiotiques et de β2-mercaptoéthanol (5 x 10^-5M). Pour le test avec le peptide, des PBMC de patients ont été ajoutés directement dans les microplaques de nitrocellulose (2 x 10^5 cellules/puits) et incubés pendant 24 heures à 37°C en présence de […] du peptide. Pour le test des lipopeptides, les PBMC ont été incubés pendant la nuit à 37 °C avec les lipopeptides, puis ont été lavés et irradiés (3000 rads). Ces cellules ont été utilisées comme cellules stimulatrices dans une co-culture (2 x 10^5 cellules par puits) avec des PBMC syngéniques ( rapport 1/1) dans des plaques de nitrocellulose pendant 24 heures à 37°C. […]

## CCCCCCCCCCCCCCCC(=O)NCCCC[C@H](NC(=O)CCCCCCCCCCCCCCC)C(=O)N[C@@H](CO)C(=O)N[C@@H](CO)C(=O)N[C@@H](CCC(N)=O)C(=O)N[C@@H](Cc1ccc(O)cc1)C(=O)N[C@H](C(=O)N[C@@H](CCCCN)C(=O)N[C@@H](C)C(=O)N[C@@H](CC(N)=O)C(=O)N[C@@H](CO)C(=O)N[C@@H](CCCCN)C(=O)N[C@@H](Cc1ccccc1)C(=O)N[C@H](C(=O)NCC(=O)N[C@H](C(=O)N[C@H](C(=O)N[C@@H](CCC(=O)O)C(=O)N[C@@H](CCCNC(=N)N)C(=O)NCC(=O)N[C@@H](CCCNC(=N)N)C(=O)N[C@@H](C)C(=O)N[C@@H](C)C(=O)NCC(=O)N[C@H](C(=O)NCC(=O)N[C@H](C(=O)N[C@@H](CC(C)C)C(=O)N[C@H](C(=O)N[C@H](C(=O)O)C(C)C)[C@@H](C)O)[C@@H](C)CC)[C@@H](C)CC)[C@@H](C)O)[C@@H](C)CC)[C@@H](C)CC)[C@@H](C)CC [lipopeptide n°2] (Palmitoyl-K(Palmitoyl)SSQYIKANSKFIGITERGRAAGIGILTV-OH)
[1]; water
  solubilité dans l'eau: comportement voisin du lipopeptide n°1

## CCCCCCCCCCCCCCCC(=O)NCCCC[C@H](N)C(=O)N[C@@H](CO)C(=O)N[C@@H](CO)C(=O)N[C@@H](CCC(N)=O)C(=O)N[C@@H](Cc1ccc(O)cc1)C(=O)N[C@H](C(=O)N[C@@H](CCCCN)C(=O)N[C@@H](C)C(=O)N[C@@H](CC(N)=O)C(=O)N[C@@H](CO)C(=O)N[C@@H](CCCCN)C(=O)N[C@@H](Cc1ccccc1)C(=O)N[C@H](C(=O)NCC(=O)N[C@H](C(=O)N[C@H](C(=O)N[C@@H](CCC(=O)O)C(=O)N[C@@H](CCCNC(=N)N)C(=O)NCC(=O)N[C@@H](CCCNC(=N)N)C(=O)N[C@@H](C)C(=O)N[C@@H](C)C(=O)NCC(=O)N[C@H](C(=O)NCC(=O)N[C@H](C(=O)N[C@@H](CC(C)C)C(=O)N[C@H](C(=O)N[C@H](C(=O)O)C(C)C)[C@@H](C)O)[C@@H](C)CC)[C@@H](C)CC)[C@@H](C)O)[C@@H](C)CC)[C@@H](C)CC)[C@@H](C)CC [lipopeptide n°4] (H-K(Palmitoyl)SSQYIKANSKFIGITERGRAAGIGILTV-OH)
[1]; aqueous medium
  solubilité en milieu aqueux: n'est soluble en milieu aqueux qu'en présence de DMSO

## CCCCCCCCCCCCCCCC(=O)NCCCC[C@H](NC(=O)CCCCCCCCCCCCCCC)C(=O)N[C@@H](CO)C(=O)N[C@@H](CO)C(=O)N[C@@H](CCC(N)=O)C(=O)N[C@@H](Cc1ccc(O)cc1)C(=O)N[C@H](C(=O)N[C@@H](CCCCN)C(=O)N[C@@H](C)C(=O)N[C@@H](CC(N)=O)C(=O)N[C@@H](CO)C(=O)N[C@@H](CCCCN)C(=O)N[C@@H](Cc1ccccc1)C(=O)N[C@H](C(=O)NCC(=O)N[C@H](C(=O)N[C@H](C(=O)N[C@@H](CCC(=O)O)C(=O)N[C@@H](C)C(=O)N[C@@H](C)C(=O)N[C@@H](C)C(=O)N[C@@H](C)C(=O)N[C@@H](C)C(=O)NCC(=O)N[C@H](C(=O)NCC(=O)N[C@H](C(=O)N[C@@H](CC(C)C)C(=O)N[C@H](C(=O)N[C@H](C(=O)O)C(C)C)[C@@H](C)O)[C@@H](C)CC)[C@@H](C)CC)[C@@H](C)O)[C@@H](C)CC)[C@@H](C)CC)[C@@H](C)CC [lipopeptide n° 1] (Palmitoyl-K(Palmitoyl)SSQYIKANSKFIGITEAAAAAGIGILTV-OH)
[1]
  solubilité dans un mélange DMSO/eau 10% V/V: pratiquement insoluble
[1]; water
  solubilité dans l'eau: pratiquement insoluble
[1]; water, after lyophilisation
  solubilité dans l'eau après lyophilisation: totalement insoluble

## CCCCCCCCCCCCCCCC(=O)NCCCC[C@H](NC(=O)CCCCCCCCCCCCCCC)C(=O)NCC(=O)N[C@@H](CCCNC(=N)N)C(=O)N[C@@H](CCC(N)=O)C(=O)N[C@@H](Cc1ccc(O)cc1)C(=O)N[C@H](C(=O)N[C@@H](CCCCN)C(=O)N[C@@H](C)C(=O)N[C@@H](CC(N)=O)C(=O)N[C@@H](CO)C(=O)N[C@@H](CCCCN)C(=O)N[C@@H](Cc1ccccc1)C(=O)N[C@H](C(=O)NCC(=O)N[C@H](C(=O)N[C@H](C(=O)N[C@@H](CCC(=O)O)C(=O)N[C@@H](CCCNC(=N)N)C(=O)NCC(=O)N[C@@H](CCCNC(=N)N)C(=O)N[C@@H](C)C(=O)N[C@@H](C)C(=O)NCC(=O)N[C@H](C(=O)NCC(=O)N[C@H](C(=O)N[C@@H](CC(C)C)C(=O)N[C@H](C(=O)N[C@H](C(=O)O)C(C)C)[C@@H](C)O)[C@@H](C)CC)[C@@H](C)CC)[C@@H](C)O)[C@@H](C)CC)[C@@H](C)CC)[C@@H](C)CC [lipopeptide n° 3] (Palmitoyl-K(Palmitoyl)GRQYIKANSKFIGITERGRAAGIGILTV-OH)
[1]
  solubilité dans un mélange DMSO/eau 10% V/V: dissous
[1]; acide acétique à 80%
  solubilité dans l'acide acétique à 80%: soluble
[1]; acétate salt, compared with the trifluoroacétate
  solubilité: comparable à celle du trifluoroacétate
[1]; microfiltre de 0,22 µm
  stérilisation par filtration: stérilisable
[1]; trifluoroacétate salt, DMSO
  solubilité dans le DMSO: 20 to 25 mg/mL
[1]; trifluoroacétate salt, DMSO solution diluted with water (DMSO 10%)
  solubilité après dilution par de l'eau: reste soluble

## NEF 68-76: épitope potentiel de HLA-B7 (FPVTPQVPL; UniProt P04601 68-76, looked up, fragment)
[2]
  antigénicité (ELISPOT Interféron-γ): induit efficacement une réponse CTL spécifique
